Data from PubChem BioAssay (NCI).
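A five-concentration, 48-hour dose response in 96-well plates underlies each endpoint, interpolated linearly between surrounding concentrations. GI50 is the concentration that inhibits growth by half. TGI marks complete inhibition of growth.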

Legend:
Test in all cases: inhibition of tumour cell growth, NCI panel, 48 h
UACC-62 melanoma = system: UACC-62 melanoma
SF-539 CNS = system: SF-539 CNS
HL-60(TB) leukemia = system: HL-60(TB) leukemia
SK-MEL-5 melanoma = system: SK-MEL-5 melanoma
HS 578T breast = system: HS 578T breast
CAKI-1 renal = system: CAKI-1 renal
OVCAR-5 ovarian = system: OVCAR-5 ovarian
UACC-257 melanoma = system: UACC-257 melanoma
NCI/ADR-RES ovarian = system: NCI/ADR-RES ovarian
SF-268 CNS = system: SF-268 CNS
UO-31 renal = system: UO-31 renal
HCC-2998 colon = system: HCC-2998 colon
SNB-19 CNS = system: SNB-19 CNS
SK-MEL-2 melanoma = system: SK-MEL-2 melanoma
EKVX NSCLC = system: EKVX NSCLC
A549 NSCLC = system: A549 NSCLC
NCI-H522 lung = system: NCI-H522 lung
U251 CNS = system: U251 CNS
SF-295 CNS = system: SF-295 CNS
DU-145 prostate = system: DU-145 prostate
TK-10 renal = system: TK-10 renal
OVCAR-8 ovarian = system: OVCAR-8 ovarian
MOLT-4 leukemia = system: MOLT-4 leukemia
NCI-H460 lung = system: NCI-H460 lung
NCI-H23 lung = system: NCI-H23 lung
BT-549 breast = system: BT-549 breast
OVCAR-3 ovarian = system: OVCAR-3 ovarian
MDA-MB-435 = system: MDA-MB-435
SN12C renal = system: SN12C renal
HCT-15 colon = system: HCT-15 colon
MCF7 breast = system: MCF7 breast
HOP-62 NSCLC = system: HOP-62 NSCLC
SW-620 colon = system: SW-620 colon
RXF 393 renal = system: RXF 393 renal
T-47D breast = system: T-47D breast
HOP-92 NSCLC = system: HOP-92 NSCLC
KM12 colon = system: KM12 colon
M14 melanoma = system: M14 melanoma
COLO 205 colon = system: COLO 205 colon
SNB-75 CNS = system: SNB-75 CNS
HT29 colon = system: HT29 colon
HCT-116 colon = system: HCT-116 colon
MALME-3M melanoma = system: MALME-3M melanoma
LOX IMVI melanoma = system: LOX IMVI melanoma
PC-3 prostate = system: PC-3 prostate
OVCAR-4 ovarian = system: OVCAR-4 ovarian
A498 renal = system: A498 renal
SK-MEL-28 melanoma = system: SK-MEL-28 melanoma
RPMI-8226 leukemia = system: RPMI-8226 leukemia
ACHN renal = system: ACHN renal
NCI-H226 lung = system: NCI-H226 lung
SR leukemia = system: SR leukemia
CCRF-CEM leukemia = system: CCRF-CEM leukemia
K-562 leukemia = system: K-562 leukemia
MDA-MB-231 breast = system: MDA-MB-231 breast
786-0 renal = system: 786-0 renal
SK-OV-3 ovarian = system: SK-OV-3 ovarian
IGROV1 ovarian = system: IGROV1 ovarian

CC(C)CCC[C@@H](C)[C@H]1CCC2C3=CCn4c(=O)ccc(=O)n4C3CC[C@@]21C (stereo partly specified)
GI50 (UACC-62 melanoma): 483 nM | TGI (UACC-62 melanoma): 1930 nM | GI50 (SF-539 CNS): 1430 nM | TGI (SF-539 CNS): 2790 nM | GI50 (HL-60(TB) leukemia): 113 nM | TGI (HL-60(TB) leukemia): 490 nM | GI50 (SK-MEL-5 melanoma): 844 nM | TGI (SK-MEL-5 melanoma): 2150 nM | GI50 (HS 578T breast): 1840 nM | TGI (HS 578T breast): 5030 nM | GI50 (CAKI-1 renal): 460 nM | TGI (CAKI-1 renal): 1210 nM | GI50 (OVCAR-5 ovarian): 1160 nM | TGI (OVCAR-5 ovarian): 2710 nM | GI50 (UACC-257 melanoma): 433 nM | TGI (UACC-257 melanoma): 1550 nM | GI50 (NCI/ADR-RES ovarian): 602 nM | TGI (NCI/ADR-RES ovarian): 2350 nM | GI50 (SF-268 CNS): 1460 nM | TGI (SF-268 CNS): 2870 nM | GI50 (UO-31 renal): 354 nM | TGI (UO-31 renal): 1480 nM | GI50 (HCC-2998 colon): 708 nM | TGI (HCC-2998 colon): 2030 nM | GI50 (SNB-19 CNS): 1590 nM | TGI (SNB-19 CNS): 3020 nM | GI50 (SK-MEL-2 melanoma): 557 nM | TGI (SK-MEL-2 melanoma): 1460 nM | GI50 (EKVX NSCLC): 1240 nM | TGI (EKVX NSCLC): 2940 nM | GI50 (A549 NSCLC): 325 nM | TGI (A549 NSCLC): 1240 nM | GI50 (NCI-H522 lung): 451 nM | TGI (NCI-H522 lung): 1170 nM | GI50 (U251 CNS): 645 nM | TGI (U251 CNS): 1840 nM | GI50 (SF-295 CNS): 352 nM | TGI (SF-295 CNS): 1280 nM | GI50 (DU-145 prostate): 1240 nM | TGI (DU-145 prostate): 2520 nM | GI50 (TK-10 renal): 421 nM | TGI (TK-10 renal): 1430 nM | GI50 (OVCAR-8 ovarian): 485 nM | TGI (OVCAR-8 ovarian): 7550 nM | GI50 (MOLT-4 leukemia): 545 nM | TGI (MOLT-4 leukemia): 4130 nM | GI50 (NCI-H460 lung): 886 nM | TGI (NCI-H460 lung): 2350 nM | GI50 (NCI-H23 lung): 1630 nM | TGI (NCI-H23 lung): 4180 nM | GI50 (BT-549 breast): 241 nM | TGI (BT-549 breast): 1140 nM | GI50 (OVCAR-3 ovarian): 740 nM | TGI (OVCAR-3 ovarian): 2000 nM | GI50 (MDA-MB-435): 599 nM | TGI (MDA-MB-435): 2030 nM | GI50 (SN12C renal): 624 nM | TGI (SN12C renal): 2030 nM | GI50 (HCT-15 colon): 432 nM | TGI (HCT-15 colon): 2050 nM | GI50 (MCF7 breast): 341 nM | TGI (MCF7 breast): 1400 nM | GI50 (HOP-62 NSCLC): 1340 nM | TGI (HOP-62 NSCLC): 2760 nM | GI50 (SW-620 colon): 689 nM | TGI (SW-620 colon): 1940 nM | GI50 (RXF 393 renal): 717 nM | TGI (RXF 393 renal): 2310 nM | GI50 (T-47D breast): 266 nM | TGI (T-47D breast): 1600 nM | GI50 (HOP-92 NSCLC): 240 nM | TGI (HOP-92 NSCLC): 1390 nM | GI50 (KM12 colon): 639 nM | TGI (KM12 colon): 1800 nM | GI50 (M14 melanoma): 436 nM | TGI (M14 melanoma): 1440 nM | GI50 (COLO 205 colon): 449 nM | TGI (COLO 205 colon): 1140 nM | GI50 (SNB-75 CNS): 1010 nM | TGI (SNB-75 CNS): 2180 nM | GI50 (HT29 colon): 575 nM | TGI (HT29 colon): 2060 nM | GI50 (HCT-116 colon): 220 nM | TGI (HCT-116 colon): 645 nM | GI50 (MALME-3M melanoma): 1400 nM | TGI (MALME-3M melanoma): 2920 nM | GI50 (LOX IMVI melanoma): 482 nM | TGI (LOX IMVI melanoma): 1490 nM | GI50 (PC-3 prostate): 367 nM | TGI (PC-3 prostate): 1590 nM | GI50 (OVCAR-4 ovarian): 910 nM | TGI (OVCAR-4 ovarian): 2300 nM | GI50 (A498 renal): 1260 nM | TGI (A498 renal): 2540 nM | GI50 (SK-MEL-28 melanoma): 837 nM | TGI (SK-MEL-28 melanoma): 2100 nM | GI50 (RPMI-8226 leukemia): 243 nM | TGI (RPMI-8226 leukemia): 1010 nM | GI50 (ACHN renal): 1160 nM | TGI (ACHN renal): 2450 nM | GI50 (NCI-H226 lung): 1430 nM | TGI (NCI-H226 lung): 3320 nM | GI50 (SR leukemia): 137 nM | TGI (SR leukemia): 758 nM | GI50 (CCRF-CEM leukemia): 453 nM | TGI (CCRF-CEM leukemia): > 100000 nM | GI50 (K-562 leukemia): 309 nM | TGI (K-562 leukemia): 2020 nM | GI50 (MDA-MB-231 breast): 1180 nM | TGI (MDA-MB-231 breast): 2720 nM | GI50 (786-0 renal): 921 nM | TGI (786-0 renal): 2180 nM | GI50 (SK-OV-3 ovarian): 1780 nM | TGI (SK-OV-3 ovarian): 3170 nM | GI50 (IGROV1 ovarian): 698 nM | TGI (IGROV1 ovarian): 2500 nM
